Laboratory results from paper PMC7043280 (European journal of medicinal chemistry, 2018).

Columns and labels:
NMDAR = conditions: cited from earlier work; for NMDAR agonist activity or effect on the holding current: ref Saptoka et al., 2017
[1] = system: GluN1/GluN2A-D diheteromeric NMDARs; assay: TEVC electrophysiology, values stated in the text across several GluN2 subtypes; type: cell-based, rat
GluN1/GluN2A NMDAR [2] = biological target: T1, GluN1/GluN2A NMDAR (Rattus norvegicus, UniProt P35439+Q00959); assay: TEVC electrophysiology on recombinant NMDA receptors; type: cell-based
[3] = system: GluN1/GluN2A-D diheteromeric NMDARs; conditions: cited from earlier work
GluN1/GluN2B NMDAR = GluN1/GluN2B NMDAR (Rattus norvegicus, UniProt P35439+Q00960); assay: TEVC electrophysiology on recombinant NMDA receptors; type: cell-based; conditions: for fold greater inhibitory activity on GluN2B compared to 7: from IC50 values, Table 6
GluN1/GluN2D NMDAR = GluN1/GluN2D NMDAR (Rattus norvegicus, UniProt P35439+Q62645); assay: as above; type: cell-based; conditions: for percentage maximum inhibition of the agonist response, GluN2D: value in parenthesis, ± s.e.m., L-glutamate 10 μM and glycine 10 μM
GluN1/GluN2C NMDAR = GluN1/GluN2C NMDAR (Rattus norvegicus, UniProt P35439+Q00961); assay: as above; type: cell-based; conditions: from IC50 values, Table 6
GluN1/GluN2A NMDAR [4] = biological target: T1, GluN1/GluN2A NMDAR; conditions: ref 7a; cited from earlier work

T1 sequence (Q00959 23-1464, other chains not shown): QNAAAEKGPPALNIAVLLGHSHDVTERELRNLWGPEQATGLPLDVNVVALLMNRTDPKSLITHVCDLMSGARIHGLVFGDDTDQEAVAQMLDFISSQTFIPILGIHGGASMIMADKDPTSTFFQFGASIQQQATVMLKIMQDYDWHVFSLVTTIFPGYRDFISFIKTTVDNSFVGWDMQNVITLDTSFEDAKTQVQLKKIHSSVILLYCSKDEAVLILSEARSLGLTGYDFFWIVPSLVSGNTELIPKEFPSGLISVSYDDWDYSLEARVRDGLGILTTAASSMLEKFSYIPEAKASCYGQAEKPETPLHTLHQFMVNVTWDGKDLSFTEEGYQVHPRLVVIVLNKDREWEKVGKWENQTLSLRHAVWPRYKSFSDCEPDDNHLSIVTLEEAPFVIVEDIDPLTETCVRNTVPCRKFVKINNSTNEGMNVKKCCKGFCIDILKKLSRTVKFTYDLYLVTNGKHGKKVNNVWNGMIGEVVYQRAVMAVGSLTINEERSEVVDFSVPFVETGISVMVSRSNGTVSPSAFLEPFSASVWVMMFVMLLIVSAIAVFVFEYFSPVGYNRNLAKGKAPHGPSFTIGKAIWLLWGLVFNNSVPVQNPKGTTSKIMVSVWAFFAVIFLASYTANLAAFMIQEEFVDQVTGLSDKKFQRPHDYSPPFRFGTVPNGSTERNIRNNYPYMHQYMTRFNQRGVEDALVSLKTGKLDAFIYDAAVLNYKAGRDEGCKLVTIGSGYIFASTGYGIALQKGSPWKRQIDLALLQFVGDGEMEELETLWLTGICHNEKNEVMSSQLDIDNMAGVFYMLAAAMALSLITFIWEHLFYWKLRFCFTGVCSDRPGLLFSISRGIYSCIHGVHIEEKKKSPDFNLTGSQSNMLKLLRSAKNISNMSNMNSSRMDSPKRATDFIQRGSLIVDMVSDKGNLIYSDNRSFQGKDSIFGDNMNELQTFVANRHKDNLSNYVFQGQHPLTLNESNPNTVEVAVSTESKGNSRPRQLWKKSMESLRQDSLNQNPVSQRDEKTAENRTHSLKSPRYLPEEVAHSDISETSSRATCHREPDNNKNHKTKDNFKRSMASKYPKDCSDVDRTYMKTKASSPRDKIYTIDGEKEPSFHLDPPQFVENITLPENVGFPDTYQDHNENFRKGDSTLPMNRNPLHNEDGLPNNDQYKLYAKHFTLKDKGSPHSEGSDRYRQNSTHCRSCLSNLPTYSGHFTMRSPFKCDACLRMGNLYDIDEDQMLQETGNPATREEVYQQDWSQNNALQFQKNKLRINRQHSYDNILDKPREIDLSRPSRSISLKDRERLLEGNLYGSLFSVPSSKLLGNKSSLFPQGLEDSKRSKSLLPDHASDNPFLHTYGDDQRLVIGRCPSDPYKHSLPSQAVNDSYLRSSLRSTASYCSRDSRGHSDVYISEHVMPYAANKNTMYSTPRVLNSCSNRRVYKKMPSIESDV
Chain of GluN1/GluN2D NMDAR (Q62645 28-1323, other chains not shown): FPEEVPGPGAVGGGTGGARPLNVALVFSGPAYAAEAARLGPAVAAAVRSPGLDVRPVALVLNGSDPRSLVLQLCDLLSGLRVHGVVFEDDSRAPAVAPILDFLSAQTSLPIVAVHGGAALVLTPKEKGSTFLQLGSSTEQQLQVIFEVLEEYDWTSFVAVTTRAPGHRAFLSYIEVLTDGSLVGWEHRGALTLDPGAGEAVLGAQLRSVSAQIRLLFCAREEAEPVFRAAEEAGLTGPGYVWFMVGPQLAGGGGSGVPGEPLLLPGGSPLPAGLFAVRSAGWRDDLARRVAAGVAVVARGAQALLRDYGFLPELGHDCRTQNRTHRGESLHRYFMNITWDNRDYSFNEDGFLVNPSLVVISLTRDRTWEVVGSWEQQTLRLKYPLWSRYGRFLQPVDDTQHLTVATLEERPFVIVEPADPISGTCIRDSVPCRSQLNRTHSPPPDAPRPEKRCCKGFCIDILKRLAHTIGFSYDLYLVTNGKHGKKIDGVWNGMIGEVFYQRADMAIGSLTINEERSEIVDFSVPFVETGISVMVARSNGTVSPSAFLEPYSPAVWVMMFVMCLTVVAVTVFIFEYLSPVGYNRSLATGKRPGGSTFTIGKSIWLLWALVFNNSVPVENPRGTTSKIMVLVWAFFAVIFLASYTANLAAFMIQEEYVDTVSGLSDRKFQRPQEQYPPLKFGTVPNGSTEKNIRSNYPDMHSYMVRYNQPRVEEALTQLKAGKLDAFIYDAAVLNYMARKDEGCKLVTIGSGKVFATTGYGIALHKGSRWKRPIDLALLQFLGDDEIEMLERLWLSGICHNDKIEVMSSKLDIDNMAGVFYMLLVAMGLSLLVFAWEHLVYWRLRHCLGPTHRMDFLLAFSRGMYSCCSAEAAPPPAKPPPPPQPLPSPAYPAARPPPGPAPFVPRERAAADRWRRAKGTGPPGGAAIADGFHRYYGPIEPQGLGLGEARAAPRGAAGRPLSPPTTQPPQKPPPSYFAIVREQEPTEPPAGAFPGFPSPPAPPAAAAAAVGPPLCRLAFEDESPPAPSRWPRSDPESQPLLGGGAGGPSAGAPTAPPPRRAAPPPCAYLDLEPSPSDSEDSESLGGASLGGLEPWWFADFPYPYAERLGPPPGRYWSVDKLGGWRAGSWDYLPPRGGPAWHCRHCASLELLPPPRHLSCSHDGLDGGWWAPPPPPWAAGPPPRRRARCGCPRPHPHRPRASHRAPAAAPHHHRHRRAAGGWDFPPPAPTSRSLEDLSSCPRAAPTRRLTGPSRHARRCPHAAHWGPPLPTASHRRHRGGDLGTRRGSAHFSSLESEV
Chain of GluN1/GluN2B NMDAR (Q00960 27-1482, other chains not shown): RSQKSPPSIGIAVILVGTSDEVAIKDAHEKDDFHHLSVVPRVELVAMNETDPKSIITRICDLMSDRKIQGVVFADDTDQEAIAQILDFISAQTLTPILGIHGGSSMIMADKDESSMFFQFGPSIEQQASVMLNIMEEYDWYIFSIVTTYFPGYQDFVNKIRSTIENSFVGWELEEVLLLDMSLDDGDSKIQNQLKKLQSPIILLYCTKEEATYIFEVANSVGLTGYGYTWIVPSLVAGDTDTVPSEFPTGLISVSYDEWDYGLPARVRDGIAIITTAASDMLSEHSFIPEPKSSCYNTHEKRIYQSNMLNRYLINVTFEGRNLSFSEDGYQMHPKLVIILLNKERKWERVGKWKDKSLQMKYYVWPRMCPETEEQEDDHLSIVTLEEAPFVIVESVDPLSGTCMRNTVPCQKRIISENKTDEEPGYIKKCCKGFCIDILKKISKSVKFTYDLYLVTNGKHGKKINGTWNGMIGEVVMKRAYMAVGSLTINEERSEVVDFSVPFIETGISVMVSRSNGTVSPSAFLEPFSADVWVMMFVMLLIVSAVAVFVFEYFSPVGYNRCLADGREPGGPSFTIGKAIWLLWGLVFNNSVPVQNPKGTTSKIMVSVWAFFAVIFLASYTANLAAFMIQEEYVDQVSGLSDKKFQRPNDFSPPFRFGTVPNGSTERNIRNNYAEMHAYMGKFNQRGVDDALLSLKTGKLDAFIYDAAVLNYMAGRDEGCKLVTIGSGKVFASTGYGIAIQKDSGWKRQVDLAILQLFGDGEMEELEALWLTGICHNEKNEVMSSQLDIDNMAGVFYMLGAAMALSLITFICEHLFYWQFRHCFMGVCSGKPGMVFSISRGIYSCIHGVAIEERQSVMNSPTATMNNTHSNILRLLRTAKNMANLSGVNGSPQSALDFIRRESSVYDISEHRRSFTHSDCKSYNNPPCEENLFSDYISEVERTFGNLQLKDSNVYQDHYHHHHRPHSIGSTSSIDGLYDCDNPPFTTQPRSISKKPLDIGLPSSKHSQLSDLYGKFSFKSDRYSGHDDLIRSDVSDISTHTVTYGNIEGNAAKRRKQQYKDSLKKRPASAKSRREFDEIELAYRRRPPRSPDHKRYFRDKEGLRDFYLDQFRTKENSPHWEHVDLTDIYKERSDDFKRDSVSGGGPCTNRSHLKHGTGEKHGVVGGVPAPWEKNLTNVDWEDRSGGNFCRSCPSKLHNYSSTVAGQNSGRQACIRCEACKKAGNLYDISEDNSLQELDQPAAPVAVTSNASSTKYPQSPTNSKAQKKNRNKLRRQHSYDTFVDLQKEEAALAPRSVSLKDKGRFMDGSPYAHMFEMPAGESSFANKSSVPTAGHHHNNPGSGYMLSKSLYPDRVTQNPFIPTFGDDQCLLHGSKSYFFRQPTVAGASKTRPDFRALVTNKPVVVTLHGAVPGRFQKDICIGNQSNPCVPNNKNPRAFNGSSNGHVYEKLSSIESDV

In the case of `CC(C)CCC(C)c1ccc2cc(C(=O)O)ccc2c1` (racemic) [Compound 46, (RS)-6-(5-Methylhexan-2-yl)-2-naphthoic acid], the “NMDAR agonist activity or effect on the holding current” value (NMDAR) is given as “no NMDAR agonist activity or effect on the holding current”.
In the case of `CCc1ccc2cc(C(=O)O)ccc2c1` [6-ethyl derivative], the “percentage inhibition on GluN2A-D” value ([1]; 100 μM, range over GluN2A-D) is reported as 17–52%.
In the case of `O=C(O)c1ccc2cc(I)ccc2c1` [6-iodo-2-naphthoic acid], the “inhibitory activity on GluN2B-D” value ([1]; 100 μM, range over GluN2B-D) is reported as 9–12% and the inhibition at 100 µM (GluN1/GluN2A NMDAR [2]; read-out: inhibition of the agonist response on GluN2A) is reported as 26 ± 2%.
With `CCCc1ccc2cc(C(=O)O)ccc2c1` [6-n-propyl derivative] the “percentage inhibition on GluN2A-D” value ([1]; 100 μM, range over GluN2A-D) was 0–14%.
For `O=C(O)c1ccc2cc(I)c3ccccc3c2c1` [Compound 1, reference compound], the “glutamate-site or glycine-site NMDAR agonist activity; activity in the absence of agonists” value (NMDAR) is listed as “did not display glutamate-site or glycine-site NMDAR agonist activity”.
For `O=C(O)c1cc2cc(-c3ccccc3)ccc2cc1O` [Compound 7, reference compound], the “glutamate-site or glycine-site NMDAR agonist activity; activity in the absence of agonists” value (NMDAR) is given as “did not display glutamate-site or glycine-site NMDAR agonist activity” and the “maximal inhibition of GluN2A and GluN2B” value [3] is given as 57–72%.
For `CC(C)CCCc1ccc2cc(C(=O)O)ccc2c1` [Compound 14b, 6-(4-Methylpent-1-yl)-2-naphthoic acid], the “potentiation across GluN2A-D” value ([1]; 100 μM) is listed as > 170%, the EC50 ([1]; read-out: EC50 values across GluN2A-D, range over GluN2A-D) is listed as 28 to 37.2 µM and the “NMDAR agonist activity or effect on the holding current” value (NMDAR) is listed as “no NMDAR agonist activity or effect on the holding current”.
For `CCCCCc1ccc2cc(CC(=O)O)ccc2c1` [Compound 21, (6-n-Pent-1-ylnaphthalen-2-yl)acetic acid], the “inhibition on at least one of the GluN1/GluN2 subtypes” value ([1]; 100 μM) was ≥ 50%.
For `CCCCOc1ccc2cc(C(=O)O)ccc2c1` [Compound 24, 6-Butoxy-2-naphthoic acid], the “inhibition on at least one of the GluN1/GluN2 subtypes” value ([1]; 100 μM) was ≥ 50%.
With `CC(C)CNC(=O)c1ccc2cc(C(=O)O)ccc2c1` [Compound 52, 6-(Isobutylcarbamoyl)-2-naphthoic acid] the “inhibition on at least one of the GluN1/GluN2 subtypes” value ([1]; 100 μM) was ≥ 50%.
In the case of `CC(C)C(=O)OCc1ccc2cc(C(=O)O)ccc2c1` [Compound 54, 6-((Isobutyryloxy)methyl)-2-naphthoic acid], the “inhibition on at least one of the GluN1/GluN2 subtypes” value ([1]; 100 μM) is reported as ≥ 50%.
With `CC(C)COCc1ccc2cc(C(=O)O)ccc2c1` [Compound 57, 6-(Isobutoxymethyl)-2-naphthoic acid] the “inhibition on at least one of the GluN1/GluN2 subtypes” value ([1]; 100 μM) was ≥ 50%.
For `O=C(O)c1cc2cc(/C=C/c3ccccc3)ccc2cc1O` [Compound 79a, (E)-3-Hydroxy-7-styryl-2-naphthoic acid], the “fold greater inhibitory activity on GluN2C and GluN2D compared to 7” value ([1]; GluN2C and GluN2D, from IC50 values, Table 6) was 3–5 fold, the “maximal inhibition across GluN2A-D” value ([1]; range over GluN2A-D) was 83–94% and the “fold greater inhibitory activity on GluN2B compared to 7” value (GluN1/GluN2B NMDAR) was ~ 10 fold.
In the case of `O=C(O)c1cc2cc(/C=C/c3ccccc3[N+](=O)[O-])ccc2cc1O` [Compound 79h, (E)-3-Hydroxy-7-(2-nitrostyryl)-2-naphthoic acid], the “fold lower IC50 on GluN2A and GluN2D compared to 79a” value ([1]; GluN2A and GluN2D) is reported as 3 fold, the “maximal inhibition of GluN2B-D” value ([1]; range over GluN2B-D) is reported as 60–80% and the “percentage maximum inhibition of the agonist response, GluN2D” value (GluN1/GluN2D NMDAR) is reported as 70–80%. The “fold higher IC50 on GluN2B compared to 79a” value (GluN1/GluN2B NMDAR) was 4 fold and the “percentage maximum inhibition of the agonist response, GluN2A” value (GluN1/GluN2A NMDAR [2]; value in parenthesis, ± s.e.m., L-glutamate 10 μM and glycine 10 μM) was 30%.
For `O=C(O)c1cc2cc(/C=C/c3cccc([N+](=O)[O-])c3)ccc2cc1O` [Compound 79i, (E)-3-Hydroxy-7-(3-nitrostyryl)-2-naphthoic acid], the “fold higher inhibitory activity on GluN2D compared to 7” value (GluN1/GluN2D NMDAR; from IC50 values, Table 6) was 35 fold, the “percentage maximum inhibition of the agonist response, GluN2D” value (GluN1/GluN2D NMDAR) was 70–80% and the “fold greater inhibitory activity on GluN2B compared to 7” value (GluN1/GluN2B NMDAR) was 10 fold. The “fold higher inhibitory activity on GluN2C compared to 7” value (GluN1/GluN2C NMDAR) was 5 fold.
For `O=C(O)c1cc2cc(Br)ccc2oc1=O` [UBP608], the “selectivity for GluN2A over GluN2D” value (GluN1/GluN2A NMDAR [4]) is given as 23 fold.
